{"source": "patent US20190119649A1", "about": "“METHODS FOR GENERATING AUGMENTED STEM CELL-DERIVED BETA CELLS AND USES THEREOF” (President and Fellows of Harvard College, priority 2014, published 2019)", "key": {"[1]": {"test_system": "SC-β cells", "settings": "R428 together with antioxidant N-acetylcysteine; FIG. 1A", "from_the_text": "FIG. 2C is a schematic depicting an overview of an exemplary method for generating augmented SC-β cells in accordance with the present invention.\nIn accordance with aspects of the present invention, the period of time comprises between 7 days and 21 days. […] In accordance with aspects of the present invention, the period of time comprises 3 days, 4 days, 5 days, 6 days, 7 days, 8 days, 9 days, 10 days, 11 days, 12 days, 13 days, 14 days, 15 days, 16 days, 17 days, 18 days, 19 days, 20 days, 21 days, 22 days, 23 days, 24 days, 25 days, 26 days, 27 days, 28 days, 29 days, or 30 days or longer."}, "[2]": {"test_system": "SC-β cells", "assay": "Glucose stimulated insulin secretion stimulation index of SC-β cells", "type": "cell-based, human", "settings": "R428 together with antioxidant N-acetylcysteine; FIG. 1B and 1C", "experimental": "Stimulation index=[insulin@20 mM glucose]/[insulin@2 mM glucose]. Relative Stim Index=Stim Index/Stim Index of Control."}}}
{"smiles": "Nc1nc(Nc2ccc3c(c2)CC[C@@H](N2CCCC2)CC3)nn1-c1cc2c(nn1)-c1ccccc1CCC2", "note": "[Compound R428]", "values": [{"measurement": "MAFA gene expression relative to SC-β cells generated without AXL inhibitor and antioxidant", "setting": "[1]", "value": "increased MAFA gene expression"}, {"measurement": "Stimulation index ([insulin@20 mM glucose]/[insulin@2 mM glucose]) relative to SC-β cells generated without AXL inhibitor", "setting": "[2]", "value": "greater stimulation index"}]}
